{"source": "paper PMC12910498", "about": "(ACS pharmacology & translational science, 2026)", "key": {"human D2R long isoform [1]": {"biological_target": "T1, human D2R long isoform (Homo sapiens, UniProt P14416)", "T1 sequence (P14416 whole entry, canonical isoform)": "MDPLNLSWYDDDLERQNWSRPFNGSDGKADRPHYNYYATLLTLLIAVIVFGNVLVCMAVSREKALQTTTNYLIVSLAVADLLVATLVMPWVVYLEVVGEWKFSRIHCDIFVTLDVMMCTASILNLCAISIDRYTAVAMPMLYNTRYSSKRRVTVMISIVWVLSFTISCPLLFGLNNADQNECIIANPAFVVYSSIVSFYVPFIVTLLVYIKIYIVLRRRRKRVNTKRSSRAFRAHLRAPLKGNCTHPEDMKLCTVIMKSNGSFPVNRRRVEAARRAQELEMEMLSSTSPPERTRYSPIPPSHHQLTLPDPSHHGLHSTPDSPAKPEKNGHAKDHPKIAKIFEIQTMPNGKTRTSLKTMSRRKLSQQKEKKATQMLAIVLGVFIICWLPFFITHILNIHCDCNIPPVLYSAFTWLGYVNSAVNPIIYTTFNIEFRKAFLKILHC", "set-up": "host or cells: CHO-K1; method as in PMID 30883109", "settings": "antagonist mode; previously reported; cited from earlier work"}, "human D4R [2]": {"biological_target": "T2, human D4R (Homo sapiens, UniProt P21917)", "T2 sequence (P21917 1-419)": "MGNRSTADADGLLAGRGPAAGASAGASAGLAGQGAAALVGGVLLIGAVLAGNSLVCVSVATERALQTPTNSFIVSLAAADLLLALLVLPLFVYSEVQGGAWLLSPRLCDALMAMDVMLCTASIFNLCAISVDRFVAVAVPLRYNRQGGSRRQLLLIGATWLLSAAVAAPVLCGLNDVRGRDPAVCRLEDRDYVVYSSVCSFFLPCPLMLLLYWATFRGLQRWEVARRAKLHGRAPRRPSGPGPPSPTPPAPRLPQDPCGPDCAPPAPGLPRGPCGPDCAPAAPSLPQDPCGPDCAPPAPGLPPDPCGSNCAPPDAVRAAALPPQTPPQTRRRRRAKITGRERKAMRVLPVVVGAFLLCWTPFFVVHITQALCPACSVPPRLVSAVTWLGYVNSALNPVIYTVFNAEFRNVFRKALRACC", "set-up": "host or cells: CHO-K1; method as in PMID 30883109", "settings": "previously reported, cited from earlier work; for D4R Emax (%): agonist mode; for D4R Ant. (%): antagonist mode"}, "human D3R [3]": {"biological_target": "T3, human D3R (Homo sapiens, UniProt P35462)", "T3 sequence (P35462 whole entry)": "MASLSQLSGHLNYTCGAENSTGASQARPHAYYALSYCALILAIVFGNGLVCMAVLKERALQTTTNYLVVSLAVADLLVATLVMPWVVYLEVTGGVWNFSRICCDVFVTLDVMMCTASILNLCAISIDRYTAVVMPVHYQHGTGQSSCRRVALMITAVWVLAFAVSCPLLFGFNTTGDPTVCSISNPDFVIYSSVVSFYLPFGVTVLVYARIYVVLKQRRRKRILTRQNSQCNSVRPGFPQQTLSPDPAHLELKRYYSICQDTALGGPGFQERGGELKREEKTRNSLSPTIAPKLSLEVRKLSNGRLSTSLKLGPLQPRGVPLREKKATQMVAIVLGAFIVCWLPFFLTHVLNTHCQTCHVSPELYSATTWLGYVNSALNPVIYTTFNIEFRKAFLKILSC", "set-up": "host or cells: CHO-K1; method as in PMID 30883109", "settings": "previously reported, cited from earlier work"}, "human D4R [4]": {"biological_target": "T2, human D4R", "settings": "for D4R Ant. (%): cAMP, antagonist mode, 10 μM forskolin and 10 nM dopamine, normalized to spiperone; for Emax: read-out: D4R Emax (%)"}, "[5]": {"assay": "Phase I metabolic stability in human liver microsomes (with NADPH)", "type": "in vitro ADME", "settings": "pH 7.4, presence of NADPH, mean ± SD, n = 3", "method": "(§1) We evaluated the Phase I metabolic stability of compounds 2−7 and 14−19 using rat and human liver microsomes, as previously described.[45]\n(§2) Phase I metabolic stability assays were conducted using rat and human liver microsomes as previously described[45],[70] with minor modifications. In brief, the reactions were carried out with 100 mM potassium phosphate buffer, pH 7.4, in the presence of NADPH regenerating system (1.3 mM NADPH, 3.3 mM glucose 6-phosphate, 3.3 mM MgCl2, 0.4 U/mL glucose-6-phosphate dehydrogenase, 50 μM sodium citrate). Negative controls without cofactors were assessed to determine the non-CYP-mediated metabolism. Compound disappearance was monitored over time using a liquid chromatography and tandem mass spectrometry (LC/MS) method. All reactions were performed in triplicate.\n(§3) Chromatographic analysis was performed on a Dionex ultra high-performance LC system coupled with Q Exactive Focus orbitrap mass spectrometer (Thermo Fisher Scientific Inc., Waltham MA). Separation was achieved using Agilent Eclipse Plus column (100 × 2.1 mm^2 i.d.; maintained at 35 °C) packed with a 1.8 μm C18 stationary phase. […] The total run time for each analyte was 6.5 min. Pumps were operated at a flow rate of 0.3 mL/min. The mass spectrometer controlled by Xcalibur software 4.0.27.13 (Thermo Scientific) was operated with a HESI ion source in positive ionization mode. Compounds were identified in the full-scan mode (from m/z 50 to 750) by comparing t = 0 samples with t = 30 min and t = 60 min samples."}, "[6]": {"assay": "Phase I metabolic stability in rat liver microsomes (with NADPH)", "type": "in vitro ADME", "settings": "pH 7.4, presence of NADPH, mean ± SD, n = 3", "method": "as §1, §2, §3"}, "human D3R [7]": {"biological_target": "T3, human D3R", "assay": "DiscoverX PathHunter β-arrestin recruitment assay, D3R"}, "human D4R [8]": {"biological_target": "T2, human D4R", "assay": "DiscoverX PathHunter β-arrestin recruitment assay, D4R"}, "D5": {"biological_target": "T4, D5 (Homo sapiens, UniProt P21918)", "T4 construct": "Psychoactive Drug Screening Program (PDSP)", "T4 sequence (P21918 whole entry)": "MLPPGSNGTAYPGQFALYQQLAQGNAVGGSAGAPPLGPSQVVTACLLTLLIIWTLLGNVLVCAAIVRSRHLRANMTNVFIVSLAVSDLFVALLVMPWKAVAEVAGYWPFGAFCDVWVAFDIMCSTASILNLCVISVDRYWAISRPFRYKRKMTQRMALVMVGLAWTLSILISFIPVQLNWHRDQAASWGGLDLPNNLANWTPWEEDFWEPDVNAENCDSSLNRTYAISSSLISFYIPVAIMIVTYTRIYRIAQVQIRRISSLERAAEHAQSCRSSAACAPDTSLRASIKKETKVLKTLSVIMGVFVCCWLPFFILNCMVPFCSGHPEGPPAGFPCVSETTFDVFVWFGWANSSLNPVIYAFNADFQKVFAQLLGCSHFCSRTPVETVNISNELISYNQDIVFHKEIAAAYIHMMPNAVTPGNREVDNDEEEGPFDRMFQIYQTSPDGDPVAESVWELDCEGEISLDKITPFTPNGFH", "assay": "PDSP primary screen, D5", "type": "binding", "settings": "10 µM compound", "description": "(§4) Receptor Primary Secondary Primary Secondary Primary Secondary Primary Secondary screen assay screen assay screen assay screen assay […]\n(§5) inhibition in primary assessment."}, "human D2R long isoform [9]": {"biological_target": "T1, human D2R long isoform", "assay": "DiscoverX PathHunter β-arrestin recruitment assay, D2R"}, "D1": {"biological_target": "T5, D1 (Homo sapiens, UniProt P21728)", "T5 construct": "Psychoactive Drug Screening Program (PDSP)", "T5 sequence (P21728 whole entry)": "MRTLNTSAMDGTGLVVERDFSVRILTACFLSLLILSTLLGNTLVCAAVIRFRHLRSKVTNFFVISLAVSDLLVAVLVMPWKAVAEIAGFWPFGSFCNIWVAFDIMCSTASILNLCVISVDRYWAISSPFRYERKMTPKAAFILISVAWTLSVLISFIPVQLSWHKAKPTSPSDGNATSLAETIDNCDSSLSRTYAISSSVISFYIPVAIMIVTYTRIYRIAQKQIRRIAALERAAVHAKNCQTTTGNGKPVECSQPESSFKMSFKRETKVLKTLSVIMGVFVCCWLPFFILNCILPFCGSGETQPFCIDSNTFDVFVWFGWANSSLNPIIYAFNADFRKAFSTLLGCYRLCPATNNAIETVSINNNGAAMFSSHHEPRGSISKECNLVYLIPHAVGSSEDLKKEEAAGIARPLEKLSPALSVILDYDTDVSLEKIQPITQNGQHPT", "assay": "PDSP primary screen and secondary assay, D1", "type": "binding", "settings": "10 µM compound", "description": "as §4, §5"}, "[10]": {"assay": "Pharmacokinetics study in rats (plasma and brain)", "type": "in vivo, Sprague−Dawley rats", "settings": "rat, 5 mg/kg IP", "method": "Given their adequate in vitro stability profiles, we next evaluated the in vivo pharmacokinetic profiles of 14, 15, 17, and 18 in rats. Sprague−Dawley rats were dosed with 5 mg/kg (14, 15, 17) or 10 mg/kg (18), i.p., and plasma and brain levels of each drug were measured 0−6 h postdose.\nAll animal experiments were performed following the protocols evaluated and approved by the Animal Care and Use Committee at Johns Hopkins University (Ethics Approval Number: RA24M403). Pharmacokinetic studies in Sprague−Dawley (SD) rats were conducted according to protocols approved. SD rats obtained from Harlan were maintained on a 12 h light−dark cycle with ad libitum access to food and water. Test compound was administered via i.p. injection at a dose of 10 mg/kg (100% saline vehicle, 10 mL/kg volume). The rats were sacrificed at specified time points (0.25, 0.5 h, 1, 2, 4, and 6 h) post drug administration. For the collection of plasma and brain tissue, animals were euthanized with CO2, and blood samples were collected in heparinized microtubes by cardiac puncture. Brains were dissected and immediately flash-frozen (−80 °C). Blood samples were spun at 2000g for 15 min, and plasma was removed and stored at −80 °C until analysis (as described below).\nQuantitation of triazole analogs 14, 15, 17, and 18 was performed using liquid chromatography with tandem mass spectrometry (LC/MS-MS) methods. Briefly, calibration standards were prepared using respective tissue (naïve plasma and brain) with additions of the test compounds. For quantifying the test compounds in the pharmacokinetic samples, plasma samples (20 μL) were processed using a single liquid extraction method by addition of 100 μL of acetonitrile containing internal standard (losartan: 0.5 μM), followed by vortex-mixing for 30 s and then centrifugation at 10,000g for 10 min at 4 °C. Brain tissues were diluted 1:5 w/v with acetonitrile containing losartan (0.5 μm) and homogenized, followed by vortex-mixing and centrifugation at 10,000g for 10 min at 4 °C. A 50 μL aliquot of the supernatant was diluted with 50 μL of water and transferred to 250 μL polypropylene autosampler vials sealed with Teflon caps. Two μL of the sample was injected into the LC/MS/MS system for analysis. Chromatographic analysis was performed using an Accela ultra high-performance system consisting of an analytical pump and an autosampler coupled with a TSQ Vantage mass spectrometer. […] The mobile phase consisted of 0.1% formic acid in acetonitrile and 0.1% formic acid in water with gradient elution, starting with 10% organic phase (from 0 to 1 min) linearly increasing to 95% (from 1 to 2 min), and re-equilibrating to 10% by 3 min. The total run time for each analyte was 3.5 min. Pumps were operated at a flow rate of 0.4 mL/min. […] Plasma concentrations (nmol/mL) as well as brain tissue concentrations (nmol/g) were determined and plots of mean plasma concentration versus time were constructed. Noncompartmental analysis modules in Phoenix WinNonlin version 7.0 (Certara USA, Inc., Princeton, NJ) were used to quantify exposures (AUC0−t) and half-life (t1/2)."}, "[11]": {"settings": "antagonist mode, EC80 dopamine (1 μM), normalized to spiperone"}}, "note": "Several values for one entry are separate records, joined by “and”; a condition that tells them apart may be missing. Equal entries are not always repeated. Where two headings read alike, the source gives them in different places."}
{"smiles": "Cc1cccc(NC(=O)CN2CCC(c3ccccn3)CC2)c1", "note": "[Compound 1, reference compound]", "values": [{"measurement": "D2R Ant (%)", "setting": "human D2R long isoform [1]", "value": "94.8 ± 2.8", "unit": "%"}, {"measurement": "D4R Emax (%)", "setting": "human D4R [2]", "value": "22.5 ± 4.0", "unit": "%"}, {"measurement": "D4R Ant. (%)", "setting": "human D4R [2]", "value": "81.7 ± 2.7", "unit": "%"}, {"measurement": "EC50", "setting": "human D3R [3]; agonist mode", "value": "> 100", "unit": "µM"}, {"measurement": "IC50", "setting": "human D3R [3]; antagonist mode", "value": "> 100", "unit": "µM"}]}
{"smiles": "Cc1cccc(NC(=O)CN2CCC(c3ccccc3)CC2)c1", "note": "[Compound 5]", "values": [{"measurement": "EC50", "setting": "human D4R [4]", "value": "0.00754 ± 0.00221", "unit": "µM"}, {"measurement": "IC50", "setting": "human D4R [4]", "value": "0.0424 ± 0.0106", "unit": "µM"}, {"measurement": "D4R Ant. (%)", "setting": "human D4R [4]", "value": "47 ± 1", "unit": "%"}, {"measurement": "Emax", "setting": "human D4R [4]", "value": "42 ± 8", "unit": "%"}, {"measurement": "half-life", "setting": "[5]", "value": "10.8 ± 0.57", "unit": "min"}, {"measurement": "half-life", "setting": "[6]", "value": "1.99 ± 2.82", "unit": "min"}, {"measurement": "D2R Ant (%)", "setting": "human D2R long isoform [1]", "value": "99.7 ± 0.3", "unit": "%"}, {"measurement": "D4R Emax (%)", "setting": "human D4R [2]", "value": "14 ± 0.3", "unit": "%"}, {"measurement": "D4R Ant. (%)", "setting": "human D4R [2]", "value": "93% and 93.3 ± 1.8%"}]}
{"smiles": "Cc1cccc(-n2cc(CN3CCC(c4ccccc4)CC3)nn2)c1", "note": "[Compound 14, 4-Phenyl-1-((1-(m-tolyl)-1H-1,2,3-triazol-4-yl)methyl)-piperidine]", "values": [{"measurement": "EC50", "setting": "human D4R [4]", "value": "0.0445 ± 0.0174", "unit": "µM"}, {"measurement": "IC50", "setting": "human D4R [4]", "value": "0.0846 ± 0.0156", "unit": "µM"}, {"measurement": "D4R Ant. (%)", "setting": "human D4R [4]", "value": "63 ± 2", "unit": "%"}, {"measurement": "Emax", "setting": "human D4R [4]", "value": "30 ± 5", "unit": "%"}, {"measurement": "IC50", "setting": "human D3R [7]", "value": "6.3 ± 2.1", "unit": "µM"}, {"measurement": "D3R Ant. (%)", "setting": "human D3R [7]; [11]", "value": "81.6 ±0.3", "unit": "%"}, {"measurement": "EC50", "setting": "human D4R [8]", "value": "> 100", "unit": "µM"}, {"measurement": "D4R average activity at the highest tested dose", "setting": "human D4R [8]; agonist mode, at 100 μM (Emax ND)", "value": "ND (12% at 100 μM)"}, {"measurement": "D4R Ant. (%)", "setting": "human D4R [8]; [11]", "value": "93.3 ± 5.9", "unit": "%"}, {"measurement": "inhibition at 10 µM", "setting": "D5", "value": 16, "unit": "%"}, {"measurement": "IC50", "setting": "human D2R long isoform [9]", "value": "6.09 ± 1.34", "unit": "µM"}, {"measurement": "D2R Ant (%)", "setting": "human D2R long isoform [9]; [11]", "value": "112 ± 3", "unit": "%"}, {"measurement": "inhibition at 10 µM", "setting": "D1", "value": 20.2, "unit": "%"}, {"measurement": "half-life", "setting": "[5]", "value": "63.3 ± 2.98", "unit": "min"}, {"measurement": "half-life", "setting": "[6]", "value": "13.4 ± 0.44", "unit": "min"}, {"measurement": "Kp", "setting": "[10]; Sprague-Dawley, brain and plasma, ip, 5 mg/kg, AUC brain/plasma, read-out: brain: Plasma ratio", "value": 0.76}, {"measurement": "half-life", "setting": "[10]; Sprague-Dawley, brain, ip, 5 mg/kg, brain, read-out: half-life (h) brain (converted)", "value": 0.4, "unit": "h"}, {"measurement": "half-life", "setting": "[10]; Sprague-Dawley, plasma and brain, ip, 5 mg/kg, tissue not specified, read-out: half-life (converted)", "value": "≤ 0.4", "unit": "h"}, {"measurement": "half-life", "setting": "[10]; Sprague-Dawley, plasma, ip, 5 mg/kg, plasma, read-out: half-life (h) plasma (converted)", "value": 0.37, "unit": "h"}, {"measurement": "Tmax", "setting": "[10]; Sprague-Dawley, brain, read-out: Tmax (h) brain", "value": 0.25, "unit": "h"}, {"measurement": "AUC", "setting": "[10]; Sprague-Dawley, plasma", "value": "1.56 ± 0.2", "unit": "µM·h"}, {"measurement": "Cmax", "setting": "[10]; Sprague-Dawley, plasma", "value": "2890 ± 570", "unit": "nM"}, {"measurement": "Tmax", "setting": "[10]; Sprague-Dawley, plasma, read-out: Tmax (h) plasma", "value": 0.25, "unit": "h"}, {"measurement": "AUC brain", "setting": "[10]; brain", "value": "1.19 ± 0.10", "unit": "nmol·h/g"}, {"measurement": "Cmax brain", "setting": "[10]; brain, 5 mg/kg", "value": "2.16 ± 0.21", "unit": "nmol/g"}, {"measurement": "peak in vivo brain concentrations expected", "setting": "[10]; from brain Cmax", "value": "greater than 2.8 μM"}]}
